This note sets out measurements from patent EP0542837B1, “PROPYLAMINE DERIVATIVES” (NORGINE LIMITED, priority 1990, dated 1992).

In this assay the test system is Guinea-pig ileum muscle. The experiment in a line: Antispasmodic activity: reduction of the acetylcholine contraction of isolated ileum in a gut bath. In kind it is cell-based. The protocol:
Antispasmodic activity was determined using standard methodology. (d) Guinea-pig ileum muscle was suspended in a gut bath, in oxygenated Tyrode's solution at 37°. Doses of acetylcholine were added to the gut bath fluid, the contraction recorded, and the bath washed out with fresh Tyrode's solution. This was carried out repeatedly to establish a dose of acetylcholine to cause a sub-maximal response. This dose of acetylcholine was used repeatedly, on a 2 minute cycle to establish steady responses. Doses of antispasmodic were then added 30 seconds before the acetylcholine dose to establish the magnitude of reduction of the acetylcholine contraction.

Like-named read-outs stand apart in the source and are kept apart here.

On to `CCN(CCCc1ccccc1)CCCc1ccc(O)cc1` [compound (II), N-ethyl, N-(3-phenylpropyl), 3-(4-hydroxyphenyl)-propylamine], for which the “equivalent amount for antispasmodic activity” value (equi-active amounts of the amine hydrochloride and atropine sulphate, acetylcholine contraction, oxygenated Tyrode's solution at 37°) is 1.5 ng. The “antispasmodic activity times less than the standard” value (relative to atropine sulphate as standard, acetylcholine contraction, oxygenated Tyrode's solution at 37°, antispasmodic added 30 seconds before the acetylcholine dose) was “approximately 25 times”. `CN1C2CCC1CC(OC(=O)C(CO)c1ccccc1)C2` (racemic) [atropine sulphate, reference compound]: the “equivalent amount for antispasmodic activity” value turned out to be 0.06 ng.
